# Laboratory results published in patent US20260159486A1, “BENZO[H]QUINAZOLINE-4-AMINE DERIVATIVES FOR THE TREATMENT OF CANCER” (Redona Therapeutics, Inc., priority 2021, published 2026).
# Assays:
# [1] = system: CAL-51 cells; test: CAL-51 proliferation assay; type: cell-based; conditions: Homo sapiens, CAL-51, 72 h, YO-PRO-1 Iodide readout
# Excerpt: (§1) MDA-MB-231 and CAL-51 Proliferation Assay
# (§2) Cells (MDA-MB-231 (American Type Culture Collection (ATCC), #HTB-26) or CAL-51 (Deutsche Sammlung von Mikroorganismen und Zellkulturen (DSMZ), #ACC302) as applicable) were cultivated in DMEM High Glucose (4.5 g/L) with L-Glutamine (BioConcept, cat. no. 1-26F03-I) supplemented with 1% Na-pyruvate (Sigma, cat. no. S8636), 1% Penicillin-Streptomycin (BioConcept, cat. no. 4-01F00H), and 10% FBS (Sigma, cat. no. F9665) using standard techniques. Cells were seeded in black, clear-bottom 384 well plates for tissue culture (Greiner Bio-One, cat. no. 781091) at a density of 750 cells per well in 20 μL medium and the plates were incubated overnight at 37° C. with 5% CO2 prior to treatment. Experimental compounds were serially diluted in DMSO to 200× the desired final concentrations. The solutions were then diluted 1:40 with culture medium and 5 μL aliquots were mixed into the wells containing the cells. The final concentration of DMSO was 0.5%. The plates were incubated for 72 hours and cell numbers were then measured using YO-PRO™-1 Iodide (ThermoFisher Scientific, cat. no. Y3603) essentially as recommended by the manufacturer. Briefly, a 12.5 μM solution of YO-PRO™_1 Iodide in 5× YO—PRO buffer (100 mM Na-citrate, 130 mM NaCl, pH 4) was combined with an equal volume of lysis buffer (0.6% NP-40, 30 mM EDTA, 30 mM EGTA, 0.33× YO—PRO buffer) and 12.5 μL of the mixture were dispensed into each well. The plates were incubated at room temperature in the dark for 30 minutes. Fluorescence intensity signals were then measured on a Synergy 4 reader (BioTek) using 485/20 nm and 530/25 nm filters for the excitation and emission, respectively. Relative proliferation values were calculated by normalizing the raw data using DMSO-treated cells (100% proliferation) and the signals obtained from cells that were evaluated at the time of compound addition (0% proliferation). The concentration-response data were fitted to a sigmoidal 4-parameter logistic model with the maximum constrained to 100%. GI50 values were calculated from the curves as the compound concentrations reducing proliferation to 50%.
# [2] = system: MDA-MB-231 cells; test: MDA-MB-231 proliferation assay; type: cell-based; conditions: Homo sapiens, MDA-MB-231, 72 h, YO-PRO-1 Iodide readout
# Excerpt: as §1, §2
# [3] = target: T1, recombinant human CLK3 (Homo sapiens, UniProt P49761); test: CLK3 kinase assay (LANCE Ultra); type: biochemical; conditions: CLK3 0.5 nM, ATP 300 μM, 3 hours at 30° C.
# T1 construct: purchased Thermo Fisher Scientific PV3826
# Protocol: CLK3 kinase activity was measured using the LANCE® Ultra technology (PerkinElmer) essentially as recommended by the supplier. Briefly, 2.5 μL of test sample at 4× the desired final concentration in 4% DMSO were dispensed into white, low volume, round bottom, 384 well plates (Corning, cat. no. 4512). 5 μL of a mixture containing recombinant human CLK3 (Thermo Fisher Scientific, cat. no. PV3826) and the labeled peptide substrate ULight™-CREBtide (PerkinElmer, cat. no. TRF0107) prepared in 1.33× kinase buffer (Thermo Fisher Scientific, cat. no. PV3189) were then added. Finally, the reactions were started by adding 2.5 μL of a 4× solution of ATP in kinase buffer. The plates were sealed with adhesive foils and incubated for 3 hours at 30° C. in the dark. The final concentrations of CLK3, ULight™-CREBtide, and ATP were 0.5 nM, 50 nM, and 300 μM, respectively. 5 μL of 40 mM EDTA were then added to terminate the reactions. The Eu-anti-phospho-CREB antibody (PerkinElmer, cat. no. TRF0200) diluted in LANCE® detection buffer (PerkinElmer, cat. no. CR97) was then added to a final concentration of 2 nM and the reactions were incubated for 1 hour at room temperature in the dark. The signals were measured using a Synergy 4 reader (BioTek) with a 320/80 nm filter for the excitation and 620/10 nm and 665/8 nm filters for the donor and acceptor emission, respectively. Relative inhibition values were calculated by normalizing the raw data using solvent control wells (0% inhibition) and wells that received no ATP (100% inhibition). IC50 values were calculated by fitting the concentration-response data to a sigmoidal 4-parameter logistic model. IC50 values for CLK3 are determined from duplicate measurements at ten different concentrations (serial 1:3 dilutions).
# T1 sequence (P49761 whole entry): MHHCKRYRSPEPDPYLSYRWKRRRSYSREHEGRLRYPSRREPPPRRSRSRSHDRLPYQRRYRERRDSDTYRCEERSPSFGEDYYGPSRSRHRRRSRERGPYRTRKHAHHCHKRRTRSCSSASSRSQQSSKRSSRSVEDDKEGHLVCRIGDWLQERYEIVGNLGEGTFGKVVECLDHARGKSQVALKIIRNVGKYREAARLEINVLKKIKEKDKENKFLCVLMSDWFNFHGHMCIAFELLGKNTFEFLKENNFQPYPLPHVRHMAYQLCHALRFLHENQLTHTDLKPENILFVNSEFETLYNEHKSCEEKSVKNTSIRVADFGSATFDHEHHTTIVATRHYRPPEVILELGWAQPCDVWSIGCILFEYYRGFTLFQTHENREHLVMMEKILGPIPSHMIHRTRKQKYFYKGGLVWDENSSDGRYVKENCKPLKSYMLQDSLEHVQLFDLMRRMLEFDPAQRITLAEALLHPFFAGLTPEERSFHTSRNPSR
Compound,GI50 [1] [µM],GI50 [2] [µM],IC50 [3] [µM]
"CCCCN(C)c1c(O[C@H]2CC[C@H](N)CC2)ccc2c1CC(C)(C)c1c(N)ncnc1-2 [Example 100, 8-(trans-4-aminocyclohexoxy)-N7-butyl-N7,5,5-trimethyl-6H-benzo[h]quinazoline-4,7-diamine]",0.1 to 2,0.1 to 2,0.101 to 1
"CC1(C)Cc2c(ccc(O[C@H]3CC[C@H](N)CC3)c2NC(=O)CO)-c2ncnc(N)c21 [Example 45, N-[4-amino-8-(trans-4-aminocyclohexoxy)-5,5-dimethyl-6H-benzo[h]quinazolin-7-yl]-2-hydroxy-acetamide]",> 2,> 2,0.101 to 1
"COCCNc1c(O[C@H]2CC[C@H](N)CC2)ccc2c1CC(C)(C)c1c(N)ncnc1-2 [Example 18, 8-(trans-4-aminocyclohexoxy)-N7-(2-methoxyethyl)-5,5-dimethyl-6H-benzo[h]quinazoline-4,7-diamine]",0.1 to 2,0.1 to 2,0.101 to 1
"CN(CC(C)(C)C#N)c1c(O[C@H]2CC[C@H](N)CC2)ccc2c1CC(C)(C)c1c(N)ncnc1-2 [Example 91, 3-[[4-amino-8-(trans-4-aminocyclohexoxy)-5,5-dimethyl-6H-benzo[h]quinazolin-7-yl]-methyl-amino]-2,2-dimethyl-propanenitrile]",< 0.1,< 0.1,< 0.03
"CC1(C)Cc2c(ccc(O[C@H]3CC[C@H](N)CC3)c2N2CCC(C#N)C2)-c2ncnc(N)c21 (stereo partly drawn) [Example 66, 1-[4-amino-8-(trans-4-aminocyclohexoxy)-5,5-dimethyl-6H-benzo[h]quinazolin-7-yl]pyrrolidine-3-carbonitrile]",< 0.1,< 0.1,< 0.03
"CN(CCC#N)c1c(O[C@H]2CC[C@H](N3CCOCC3)CC2)ccc2c1CC(C)(C)c1c(N)ncnc1-2 [Example 52, 3-[[4-amino-5,5-dimethyl-8-(trans-4-morpholinocyclohexoxy)-6H-benzo[h]quinazolin-7-yl]-methyl-amino]propanenitrile]",< 0.1,< 0.1,< 0.03
"CC1(C)Cc2c(ccc(O[C@H]3CC[C@H](N)CC3)c2NCCO)-c2ncnc(N)c21 [Example 14, 2-[[4-amino-8-(trans-4-aminocyclohexoxy)-5,5-dimethyl-6H-benzo[h]quinazolin-7-yl]amino]ethanol]",0.1 to 2,0.1 to 2,< 0.03
CN(CCC#N)c1c(O[C@H]2CC[C@H](N(C)C)CC2)ccc2c1CC(C)(C)c1c(N)ncnc1-2 [Example 96],< 0.1,< 0.1,< 0.03
"CN(Cc1c[nH]cn1)c1c(O[C@H]2CC[C@H](N)CC2)ccc2c1CC(C)(C)c1c(N)ncnc1-2 [Example 103, 8-(trans-4-aminocyclohexoxy)-N7-(1H-imidazol-4-ylmethyl)-N7,5,5-trimethyl-6H-benzo[h]quinazoline-4,7-diamine]",0.1 to 2,0.1 to 2,0.03 to 0.1
"CC1(C)Cc2c(ccc(O[C@H]3CC[C@H](N)CC3)c2N2CCCS2(=O)=O)-c2ncnc(N)c21 [Example 119, 8-(trans-4-aminocyclohexoxy)-7-(1,1-dioxo-1,2-thiazolidin-2-yl)-5,5-dimethyl-6H-benzo[h]quinazolin-4-amine]",0.1 to 2,0.1 to 2,< 0.03
"CN(CCC#N)c1cccc2c1CC(C)(C)c1c(N)ncnc1-2 [Example 109, 3-[(4-amino-5,5-dimethyl-6H-benzo[h]quinazolin-7-yl)-methyl-amino]propanenitrile]",< 0.1,0.1 to 2,0.03 to 0.1
"CC1(C)Cc2c(ccc(O[C@H]3CC[C@H](N)CC3)c2OCCC#N)-c2ncnc(N)c21 [Example 71, 3-[[4-amino-8-(trans-4-aminocyclohexoxy)-5,5-dimethyl-6H-benzo[h]quinazolin-7-yl]oxy]propanenitrile]",< 0.1,0.1 to 2,< 0.03
"CN(c1c(O[C@H]2CC[C@H](N)CC2)ccc2c1CC(C)(C)c1c(N)ncnc1-2)S(=O)(=O)c1ccc(F)cc1 [Example 114, N-[4-amino-8-(trans-4-aminocyclohexoxy)-5,5-dimethyl-6H-benzo[h]quinazolin-7-yl]-4-fluoro-N-methyl-benzenesulfonamide]",< 0.1,< 0.1,< 0.03
"COc1ccc2c(c1NC[C@@H]1CNC(=O)O1)CC(C)(C)c1c(N)ncnc1-2 [Example 82, (5R)-5-[[(4-amino-8-methoxy-5,5-dimethyl-6H-benzo[h]quinazolin-7-yl)amino]methyl]oxazolidin-2-one]",< 0.1,0.1 to 2,< 0.03
"CN(CCS(C)(=O)=O)c1c(O[C@H]2CC[C@@H](N)CC2)ccc2c1CC(C)(C)c1c(N)ncnc1-2 [Example 32, 8-(cis-4-aminocyclohexoxy)-N7,5,5-trimethyl-N7-(2-methylsulfonylethyl)-6H-benzo[h]quinazoline-4,7-diamine]",> 2,> 2,< 0.03
"CC1(C)Cc2c(ccc(Br)c2N2CCC(C#N)C2)-c2ncnc(N)c21 (stereo not drawn) [Example 120, 1-(4-amino-8-bromo-5,5-dimethyl-6H-benzo[h]quinazolin-7-yl)pyrrolidine-3-carbonitrile]",0.1 to 2,0.1 to 2,0.101 to 1
"CC(=O)Nc1c(O[C@H]2CC[C@H](N)CC2)ccc2c1CC(C)(C)c1c(N)ncnc1-2 [Example 6, N-[4-amino-8-(trans-4-aminocyclohexoxy)-5,5-dimethyl-6H-benzo[h]quinazolin-7-yl]acetamide]",0.1 to 2,> 2,0.101 to 1
"COCCNc1c(O[C@H]2CC[C@@H](N)CC2)ccc2c1CC1(CCCC1)c1c(N)ncnc1-2 [Example 87, 8-(cis-4-aminocyclohexoxy)-N7-(2-methoxyethyl)spiro[6H-benzo[h]quinazoline-5,1′-cyclopentane]-4,7-diamine]",0.1 to 2,0.1 to 2,0.03 to 0.1
"CN(CCC(F)(F)F)c1c(O[C@H]2CC[C@H](N)CC2)ccc2c1CC(C)(C)c1c(N)ncnc1-2 [Example 43, 8-(trans-4-aminocyclohexoxy)-N7,5,5-trimethyl-N7-(3,3,3-trifluoropropyl)-6H-benzo[h]quinazoline-4,7-diamine]",0.1 to 2,0.1 to 2,0.03 to 0.1
"CC1(C)Cc2c(ccc(O[C@H]3CC[C@H](N)CC3)c2N2CCOCC2)-c2ncnc(N)c21 [Example 10, 8-(trans-4-aminocyclohexoxy)-5,5-dimethyl-7-morpholino-6H-benzo[h]quinazolin-4-amine]",0.1 to 2,0.1 to 2,0.03 to 0.1
"CC(C)N(C)c1c(O[C@H]2CC[C@H](N)CC2)ccc2c1CC(C)(C)c1c(N)ncnc1-2 [Example 102, 8-(trans-4-aminocyclohexoxy)-N7-isopropyl-N7,5,5-trimethyl-6H-benzo[h]quinazoline-4,7-diamine]",< 0.1,0.1 to 2,< 0.03
